In patent US4466963A, “Pharmaceutical compositions” (John Wyeth & Brother Limited, priority 1982, dated 1984):

Columns and labels:
normal mice (tail flick) = test: tail flick latency (tail immersion in water at 50° C.); type: in vivo
Description: In a further experiment groups of 10 normal mice were given meptazinol (40 mg/kg), ibuprofen (240 mg/kg), a mixture containing these doses of meptazinol and ibuprofen or the requisite volume of vehicle po immediately after measuring the latency to a distinct tail flick (following tail immersion in water at 50° C.). Tail flick latencies were measured again at 30 min intervals post dosing. As the mean pre-dose latencies of mice subjected to the tail immersion procedure were so similar to one another comparisons of the actual latencies at each recording time were made (Student's "t" test).

[1] = tested on: mice pretreated with carrageenin (hot-plate response); test: hot-plate response latency (brass hot-plate, 55° C.) of mice pretreated with carrageenin; type: in vivo; settings: for Increase in latency (sec) cf. pre-dose control / Latency (sec) pre-dose control: ibuprofen 240, meptazinol 40, combination 240 + 40 mg/kg po; for Latency (sec) pre-dose control: pre-dose baseline of the group, SEM on the line below
Description: For example in one method used to measure the antinociceptive effects of meptazinol, ibuprofen and combinations of the two drugs, groups of 9 mice were given 0.025 ml of 2% carrageenin (in saline) sc into the plantar surface of both hind feet 3.0 hours before treatment. The latency to a distinct response following placement of the mice on a brass hot-plate (55° C.) was measured immediately prior to dosing with vehicle (0.5% hydroxypropyl-methylcellulose in water) or with drug.
The antinociceptive response at each recording time (t) was defined as the reaction time of the mouse at time t minus the reaction time at t=0 (immediately prior to dosing).
The results after dosing with vehicle, ibuprofen (240 mg/kg), meptazinol (40 mg/kg) and a combination of ibuprofen (240 mg/kg)+meptazinol (40 mg/kg) are given in Table 1 below: […]

rats (gastric erosion) = settings: well known for non-steroidal anti-inflammatory agents; cited from earlier work
[2] = brain concentration of meptazinol after administration of 3H meptazinol alone or with ibuprofen; type: in vivo, mice; settings: for brain concentration of meptazinol: meptazinol 40 mg/kg po, or meptazinol + ibuprofen 40 + 240
Description: In a further experiment the brain concentration of meptazinol was measured after administration of meptazinol alone or a combination of ibuprofen and meptazinol. Groups of mice were given meptazinol (40 mg/kg) alone or meptazinol+ibuprofen (40+240 mg/kg) po containing 25 μCi/mouse of^3 H meptazinol. Six mice from each group were decapitated at 30 min intervals after dosing. The brain of each animal was removed and after the removal of the cerebellum, pons and medulla the remainder was homogenised in 10 ml ice cold Tris buffer. This was immediately centrifuged at 20,000 rpm for 5 min then a single 1 ml aliquot of the supernatant was taken for counting.

[3] = rats given 3H meptazinol; previous studies; cited from earlier work
[4] = 30 min post dosing, ibuprofen 240, meptazinol 40, combination 40 + 240 mg/kg po, x p < .05 cf meptazinol alone
[5] = 60 min post dosing, ibuprofen 240, meptazinol 40, combination 40 + 240 mg/kg po, xx p < .01 cf meptazinol alone
[6] = 90 min post dosing, ibuprofen 240, meptazinol 40, combination 40 + 240 mg/kg po
[7] = time 0 (pre-dose), ibuprofen 240, meptazinol 40, combination 40 + 240 mg/kg po, SEM on the line below
[8] = 30 min post dosing, *p < .02 cf vehicle, x p < .02 cf meptazinol alone
[9] = 60 min post dosing, *p < .02 cf vehicle
[10] = 90 min post dosing, x p < .02 cf meptazinol alone

SMILES | Latency to a distinct tail flick (normal mice (tail flick); [4]) [s] | Latency to a distinct tail flick (normal mice (tail flick); [5]) [s] | Latency to a distinct tail flick (normal mice (tail flick); [6]) [s] | Latency to a distinct tail flick (normal mice (tail flick); [7]) [s] | Increase in latency (sec) cf. pre-dose control [1, 8] [s] | Increase in latency (sec) cf. pre-dose control [1, 9] [s] | Increase in latency (sec) cf. pre-dose control [1, 10] [s] | Latency (sec) pre-dose control [1] [s] | further results
CC(C)Cc1ccc(C(C)C(=O)O)cc1 (stereo not drawn) [Ibuprofen, 2-(4-isobutylphenyl)propionic acid] | 2.75 | 3.04 | 3.94 | 3.43 | -0.72 | -1.56 | -1.30 | 7.16 | effect on the tail flick latency (normal mice (tail flick); ibuprofen alone, 240 mg/kg po): did not significantly affect the tail flick latency; antinociceptive response ([1]; ibuprofen 240 mg/kg alone): did not produce any antinociceptive response; gastric damage (rats (gastric erosion)): induce gastric damage
CCC1(c2cccc(O)c2)CCCCN(C)C1 (stereo not drawn) [Meptazinol, m-(3-ethylhexahydro-1-methyl[1H]azepin-3-yl) phenol] | 4.24 | 4.85 | 4.80 | 3.43 | 4.76 | 3.00 | 1.76 | 6.41 | Latency to a distinct tail flick (normal mice (tail flick); 30 min post dosing, meptazinol 80 mg/kg po, ***p < .0001 cf vehicle control): 6.95 s; Latency to a distinct tail flick (normal mice (tail flick); 60 min post dosing, meptazinol 80 mg/kg po, **p < .01): 6.75 s; Latency to a distinct tail flick (normal mice (tail flick); 90 min post dosing, meptazinol 80 mg/kg po, ***p < .0001 cf vehicle control): 6.37 s; antinociceptive response (tail flick) (normal mice (tail flick); meptazinol 40 mg/kg alone): did induce a significant antinociceptive response; Latency to a distinct tail flick (normal mice (tail flick); time 0 (pre-dose), meptazinol 80 mg/kg po): 3.54 s; brain concentration of meptazinol ([2]; 30 min post treatment, **p < .01 cf meptazinol alone, (SEM not stated) on the line below): 18.4 Counts × 1000/min/g brain; brain concentration of meptazinol ([2]; 60 min post treatment): 12.0 Counts × 1000/min/g brain; brain concentration of meptazinol ([2]; 90 min post treatment, *p < .05 cf meptazinol alone): 7.4 Counts × 1000/min/g brain; brain concentration of meptazinol ([2]; 120 min post treatment, **p < .01 cf meptazinol alone): 4.7 Counts × 1000/min/g brain; concentration of tritium in the brain cf. same dose of meptazinol with 240 mg/kg ibuprofen ([2]; meptazinol 40 mg/kg, 30, 60 and 90 min post dosing): approximately half; tritium in the brain in the form of meptazinol [3]: virtually all
